Values quoted from earlier work as cited in PMC12007609 (International Journal of Nanomedicine, 2025).

System: GLUT2
Settings: GLUT2 transport

In order of falling Km:
1. O=C[C@H](O)[C@@H](O)[C@@H](O)[C@H](O)CO [galactose]  ~92 mM
2. O=C(CO)[C@@H](O)[C@H](O)[C@H](O)CO [fructose]  ~76 mM
3. OC[C@H]1OC(O)[C@H](O)[C@@H](O)[C@@H]1O (stereo partly drawn) [glucose]  ~17 mM
